# Test results as given in patent publication US6693123B2 (University of Pittsburgh, priority 1995, dated 2004).
# Where a name gives a salt, the structure may show the parent alone.
# Target: T1, Rat brain protein farnesyltransferase (Rattus norvegicus, UniProt Q02293+Q04631)
# T1 construct: The enzyme is purified according to Reiss, Y., et al., Cell, 62: 81-88 (1990), utilizing steps one through three; from tissue; host or cells: rat brain
# Test: In vitro inhibition of protein farnesyltransferase, Amersham scintillation proximity assay with biotin-K Ras B fragment
# Assay type: biochemical
# Settings: Inhibition of farnesyltransferase; compound at 0.01 μM (Table 6, values marked **); read-out: % inhibition at 0.01 μM
row,inhibition at 0.01 µM [%],Compound
1,83,"CCCOc1ccncc1C=Cc1ccc(C(=O)N[C@@H](CCSC)C(=O)O)c(-c2ccccc2C)c1 [Example 1362, N-[4-(2-(4-Propyloxypyridin-3-yl)ethenyl)-2-(2-methylphenyl)benzoyl]methionine Sodium Salt]"
2,88,"CSCC[C@H](NC(=O)c1ccc(C=Cc2cnccc2OCc2cc(F)cc(F)c2)cc1-c1ccccc1C)C(=O)O [Example 1363, N-[4-(2-(4-(3,5-Difluorobenzyl)oxypyridin-3-yl)ethenyl)-2-(2-methylphenyl)benzoyl]methionine Sodium Salt]"

# Same assay, conditions: Inhibition of farnesyltransferase; compound at 0.1 μM (Table 6, values marked *); read-out: % inhibition at 0.1 μM
row,inhibition at 0.1 µM [%],Compound
1,96,"COc1ccncc1C=Cc1ccc(C(=O)N[C@@H](CCSC)C(=O)O)c(-c2ccccc2C)c1 [Example 1361, N-[4-(2-(4-Methoxypyridin-3-yl)ethenyl)-2-(2-methylphenyl)benzoyl]methionine Sodium Salt]"

# Same assay, conditions: Inhibition of farnesyltransferase; compound at 1 × 10^−6 M (Table 2)
row,Compound,% inhibition at 1 × 10^−6 M [%]
1,N-[4-(3-Imidazol-1-ylprolpylaminosulfonyl)-2-phenylbenzoyl]methionine Lithium Salt [Example 777],83
2,[4-(3-Pyridyloxymethyl)-2-(2-chlorophenyl)benzoyl]methionine Methyl Ester [Example 305],99
3,[4-(3-Pyridyloxymethyl)-2-(2-ethylphenyl)benzoyl]methionine Methyl Ester [Example 306],99
4,[4-(3-Pyridyloxymethyl)-2-phenylbenzoyl]cysteine Disodium Salt [Example 188],40
5,{4-[2-(3-Pyridy)-2-hydroxyethyl]-2-phenylbenzoyl]methionine Sodium Salt and {4-[2-(3-Pyridy)-1-hydroxyethyl]-2-phenylbenzoyl}methionine Sodium Salt [Example 284],83
6,{4-[2-(Pyrid-3-yl)ethenyl]-2-(2-methylphenyl)benzyl}methionine Butyl Ester [Example 292],36

# Same assay, conditions: Inhibition of farnesyltransferase; compound at 1 × 10^−6 M (Table 2); read-out: % inhibition at 1 × 10^−6 M
row,inhibition at 1 µM [%],Compound
1,97,"CCc1cc(C(=O)N[C@@H](CCSC)C(=O)O)c(-c2ccccc2C)cc1COc1cccnc1 [Example 918, N-[5-Ethyl-4-(pyrid-3-yloxymethyl)-2-(2-methylphenyl)benzoyl]methionine]"
2,69,"CSCCCNC(=O)c1ccc(CN(Cc2ccccc2)c2cccnc2)cc1-c1ccccc1C [Example 926, 3-Methylthiopropyl N-4-(N-Pyrid-3-yl-N-benzylaminomethyl)-2-(2-methylphenyl)benzamide]"

# Same assay, conditions: Inhibition of farnesyltransferase; compound at 1 × 10^−7 M (Table 3); read-out: % inhibition at 1 × 10^−7 M
row,inhibition at 0.1 µM [%],Compound
1,81,"CSCCC(OC(=O)c1ccc(/C=C/c2cccnc2)cc1-c1ccccc1C)C(=O)O (stereo not shown) [Example 814, 2-[4-(2-Pyrid-3-ylethen-1-yl)-2-(2-methylphenyl)benzoyl]oxy-4-methylthiobutanoic Acid]"
2,71,"CSCC[C@H](NC(=O)c1ccc(CCc2cccnc2)cc1-c1ccccc1C)/C(=N/O)NO [Example 815, N-[4-(2-Pyrid-3-yleth-1-yl)-2-(2-methylphenyl)benzoyl]methionine N,N-Dihydroxyamidine]"
3,95,"CSCC[C@H](NC(=O)c1ccc(C#Cc2cccnc2)cc1-c1ccccc1C)C(=O)O [Example 865, N-[4-(2-Pyrid-3-ylethyn-1-yl)-2-(2-methylphenyl)benzoyl]methionine]"
4,91,"CCCCCc1cc(C(=O)N[C@@H](CCSC)C(=O)O)c(-c2ccccc2C)cc1COc1cccnc1 [Example 919, N-[5-Pentyl-4-(pyrid-3-yloxymethyl)-2-(2-methylphenyl)benzoyl]methionine]"
5,82,"CSCC[C@H](NC(=O)c1cc(CC2CCCCC2)c(COc2cccnc2)cc1-c1ccccc1C)C(=O)O [Example 921, N-[5-Cyclohexylmethyl-4-(pyrid-3-yloxymethyl)-2-(2-methylphenyl)benzoyl]methionine]"

# Same assay, conditions: Inhibition of farnesyltransferase; compound at 1 × 10^−8 M (Table 4); read-out: % inhibition at 1 × 10^−8 M
row,inhibition at 0.01 µM [%],Compound
1,94,"CSCC[C@H](NC(=O)c1ccc(COc2cccnc2)cc1-c1ccc(F)cc1Cl)C(=O)O [Example 871, N-[4-(Pyrid-3-yloxymethyl)-2-(2-chloro-4-fluorophenyl)benzoyl]methionine]"
2,97,"CSCC[C@H](NC(=O)c1ccc(CN(Cc2ccccc2)c2cccnc2)cc1-c1ccc(F)cc1Cl)C(=O)O [Example 873, N-(4-(N-Benzyl-N-pyrid-3-ylaminomethyl)-2-(2-chloro-4-fluorophynel)beonzoyl)methionine]"
3,96,"CSCC[C@H](NC(=O)c1cc(Cc2ccccc2)c(CN(Cc2ccccc2)c2cccnc2)cc1-c1ccccc1C)C(=O)O [Example 920, N-[5-Benzyl-4-(N-pyrid-3-yl-N-benzylaminomethyl)-2-(2-metbylphenyl)benzoyl]methionine]"
4,96,"CSCC[C@H](NC(=O)c1cc(CCc2ccccc2)c(COc2cccnc2)cc1-c1ccccc1C)C(=O)O [Example 922, N-[5-(2-Phenylethyl)-4-(pyrid-3-yloxymethyl)-2-(2-methylphenyl)benzoyl]methionine]"
5,> 50,"CSCC[C@H](NC(=O)c1ccc(CNCc2c[nH]cn2)cc1-c1ccccc1C)C(=O)O [Example 954, N-[4-(Imidazol-4-ylmethylaminomethyl)-2-(2-methylphenyl)benzoyl]methionine]"
6,> 50,"CSCC[C@H](NC(=O)c1ccc(OCCn2ccnc2)cc1-c1ccccc1)C(=O)O [Example 958, N-[4-(2-Imidazol-1-ylethoxy)-2-phenylbenzoyl]methionine]"

# Same assay, conditions: read-out: % inhibition at 0.01 μM
row,Compound,inhibition at 0.01 µM [%]
1,"CSCC[C@H](NC(=O)c1ccc(C=Cc2cnccc2O)cc1-c1ccccc1C)C(=O)O [Example 1039, N-[4-(2-(4-Hydroxypyridin-3-yl)ethenyl)-2-(2-methylphenyl)benzoyl]methionine Lithium Salt]",89
2,"CSCC[C@H](NC(=O)c1ccc(/C=C/c2cnccc2Cl)cc1-c1ccccc1C)C(=O)O [Example 1040, N-[4-(2-(4-Chloropyridin-3-yl)ethenyl)-2-(2-methylphenyl)benzoyl]methionine Lithium Salt]",90
3,"CSCC[C@H](NC(=O)c1ccc(/C=C(\C#N)c2cccnc2)cc1-c1ccccc1C)C(=O)O [Example 1076, N-[4-(Z-2-Cyano-2-pyrid-3-ylethenyl)-2-(2-methylphenyl)benzoyl]methionine, Lithium Salt]",69
4,"CSCC[C@H](NC(=O)c1ccc(/C=C(/C(=O)OC(C)(C)C)c2cccnc2)cc1-c1ccccc1C)C(=O)O [Example 1077, N-[4-(E-2-t-Butoxycarbonyl-2-pyrid-3-ylethenyl)-2-(2-methylphenyl)benzoyl]methionine, Lithium Salt]",93
5,"CSCC[C@H](NC(=O)c1ccc(CN(Cc2cccnc2)Cc2cc(F)cc(F)c2)cc1-c1ccccc1C)C(=O)O [Example 1286, N-[4-N-(N-(3-Pyridylmethyl)-N-(3,5-difluorobenzyl)aminomethyl)-2-(2-methylphenyl)benzoyl]methionine Lithium Salt]",85
6,"CSCC[C@H](NC(=O)c1ccc(CN(Cc2cccnc2)c2cc(F)cc(F)c2)cc1-c1ccccc1C)C(=O)O [Example 1287, N-[4-N-(N-3,5-Difluorophenyl-N-(3-pyridylmethyl)aminomethyl)-2-(2-methylphenyl)benzoyl]methionine Lithium Salt]",95
7,"CSCC[C@H](NC(=O)c1ccc(CN(CCCn2ccnc2)Cc2cc(F)cc(F)c2)cc1-c1ccccc1C)C(=O)O [Example 1298, N-[4-N-(N-(3-(1-Imidazole)-propyl)-N-(3,5-difluorobenzyl)aminomethyl)-2-(2-methylphenyl)benzoyl]methionine Lithium Salt]",97
8,"CSCC[C@H](NC(=O)c1ccc(CN(Cc2cc(F)cc(F)c2)c2cccnc2)cc1-c1ccccc1C)C(=O)O [Example 1360, N-[4-N-3,5-Difluorobenzyl-N-(3-pyridyl)aminomethyl-2-(2-methylphenyl)benzoyl]methionine Lithium Salt]",98

# Same assay, conditions: read-out: % inhibition at 0.1 μM
row,Compound,inhibition at 0.1 µM [%]
1,"CSCC[C@H](NC(=O)c1ccc(/C=C(\C(=O)OC(C)(C)C)c2cccnc2)cc1-c1ccccc1C)C(=O)O [Example 1078, N-[4-(Z-2-t-Butoxycarbonyl-2-pyrid-3-ylethenyl)-2-(2-methylphenyl)benzoyl]methionine, Lithium Salt]",86

# Same assay, conditions: read-out: % inhibition at 1 × 10^−7 M
row,Compound,inhibition at 0.1 µM [%]
1,"CSCC[C@H](NC(=O)c1ccc(C=Cc2ccc(Oc3ccccc3)nc2)cc1-c1ccccc1C)C(=O)O [Example 800, N-[4-(2-(6-Phenyloxypyrid-3-yl)ethen-1-yl)-2-(2-methylphenyl)benzoyl]methionine Lithium Salt]",74
2,"CSCC[C@H](NC(=O)c1ccc(CCc2ccc(Oc3ccccc3)nc2)cc1-c1ccccc1C)C(=O)O [Example 801, N-[4-(2-(6-Phenyloxypyrid-3-yl)ethyl)-2-(2-methylphenyl)benzoy]methionine Lithium Salt]",87
3,"CSCC[C@H](NC(=O)c1ccc(/C=C/c2ccc(Oc3ccccc3Cl)nc2)cc1-c1ccccc1C)C(=O)O [Example 802, Lithium Salt]",88
4,CSCC[C@H](NC(=O)c1ccc(COc2cccnc2)cc1-c1c(C)noc1C)C(=O)O [Example 823],75

# Same assay, conditions: read-out: % inhibition at 1 × 10^−8 M
row,Compound,inhibition at 0.01 µM [%]
1,"CSCC[C@H](NC(=O)c1ccc(/C=C/c2cnccc2C(O)C23CC4CC(CC(C4)C2)C3)cc1-c1ccccc1C)C(=O)O (stereo partly shown) [Example 803, Lithium Salt]",95
2,"CSCC[C@H](NC(=O)c1ccc(/C=C/c2cnccc2C(O)(c2ccccc2)c2ccccc2)cc1-c1ccccc1C)C(=O)O [Example 805, Lithium Salt]",96
